Laboratory results reported in PMC9610855, “Valorisation of the Inhibitory Potential of Fresh and Dried Fruit Extracts of Prunus spinosa L. towards Carbohydrate Hydrolysing Enzymes, Protein Glycation, Multiple Oxidants and Oxidative Stress-Induced Changes in Human Plasma Constituents” (Pharmaceuticals, 2022).

Tests used:
HO^• scavenging = conditions: mean ± SD of three replicates
Description: (§1) The scavenging efficiency of P. spinosa fruit extracts/fractions towards various ROS (O2^•−, HO^•, H2O2, HOCl, and NO^•) was tested using appropriate fluorimetric and spectrophotometric methods as described previously. Ascorbic acid and Trolox® served as positive controls. The results were expressed as half scavenging concentration (SC50) values, estimated using concentration-scavenging curves.

NO^• scavenging = conditions: mean ± SD of three replicates
Description: as §1

HOCl scavenging = conditions: mean ± SD of three replicates
Description: as §1

O2^•− scavenging = conditions: mean ± SD of three replicates
Description: as §1

H2O2 scavenging = conditions: mean ± SD of three replicates
Description: as §1

[1] = system: AGEs formation (protein glycation, fructose-BSA); test: inhibition of AGEs formation, fructose-bovine serum albumin (BSA) test system; conditions: mean ± SD (n = 3)
Description: The impact of the extracts/fractions on protein glycation was evaluated in the fructose-bovine serum albumin (BSA) test system with aminoguanidine as a positive control according to the fluorimetric method of Starowicz and Zieliński, modified by Rutkowska et al.. The fluorescence was measured at 37 °C in a microplate reader at 355 nm and 420 nm for excitation and emission, respectively. The results were reported as half inhibitory concentration (IC50) values, estimated using concentration-inhibition curves.

α-amylase = molecular target: T1, α-amylase (Sus scrofa, UniProt P00690); test: α-amylase inhibition assay (EnzChek Ultra Amylase Assay Kit, fluorometric); format: biochemical; conditions: mean ± SD (n = 3)
T1 construct: pancreatin from porcine pancreas; purchased Sigma-Aldrich; host or cells: porcine pancreas extract (pancreatin)
T1 sequence (P00690 16-511): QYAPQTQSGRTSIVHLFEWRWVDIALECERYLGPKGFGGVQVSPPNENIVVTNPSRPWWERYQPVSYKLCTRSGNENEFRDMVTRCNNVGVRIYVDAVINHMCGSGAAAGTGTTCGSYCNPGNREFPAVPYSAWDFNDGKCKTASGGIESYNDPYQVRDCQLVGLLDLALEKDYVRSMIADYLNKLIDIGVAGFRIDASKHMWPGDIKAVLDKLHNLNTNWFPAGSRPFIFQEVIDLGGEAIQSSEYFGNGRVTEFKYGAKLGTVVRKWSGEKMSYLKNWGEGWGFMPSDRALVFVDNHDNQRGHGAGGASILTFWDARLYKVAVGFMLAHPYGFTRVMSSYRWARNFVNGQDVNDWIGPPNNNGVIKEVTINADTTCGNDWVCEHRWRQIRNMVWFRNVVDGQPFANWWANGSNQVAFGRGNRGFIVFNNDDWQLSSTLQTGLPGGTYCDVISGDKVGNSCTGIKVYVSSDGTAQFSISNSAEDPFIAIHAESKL
Description: The inhibitory activity of the analytes towards α-amylase was determined fluorometrically according to Truba et al. using an EnzChek™ Ultra Amylase Assay Kit. The test was based on measuring products formed after the enzymatically catalysed hydrolysis of the corn starch substrate DQTM (labeled with the fluorescent dye BODIPY® FL). The fluorescence of the hydrolysate was read at 37 °C in a microplate reader at 485 nm and 535 nm for excitation and emission, respectively. […] The inhibitory potential of the analytes towards α-amylase was expressed as a half inhibitory concentration (IC50), calculated from concentration-inhibition curves.

α-glucosidase = α-glucosidase inhibition assay (p-NPG hydrolysis, spectrophotometric); format: biochemical; conditions: mean ± SD (n = 3)
Description: The inhibition of α-glucosidase was evaluated according to the spectrophotometric method reported by Ma et al. with slight modifications. The enzyme activity measurement was based on the p-nitrophenyl-α-D-glucopyranoside (p-NPG) hydrolysis. In brief, 150 µL of a phosphate buffer (0.1 M, pH 6.9) solution of an extract or standard was mixed with the enzyme (0.43 U/mL, 50 µL) and pre-incubated for 15 min at 37 °C. Next, a 0.7 mM p-NPG solution in the buffer (50 µL) was added, and after 15 min of incubation, the reaction was stopped by adding Na2CO3 (0.2 M, 50 µL). Finally, the absorbance was read at 405 nm in a microplate reader. […] The inhibitory potential of the analytes towards α-glucosidase was expressed as a half inhibitory concentration (IC50), calculated from concentration-inhibition curves.

[2] = system: human plasma lipids (TBARS); test: lipid peroxidation (TBARS) in human plasma exposed to ONOO^−; conditions: 5 μg/mL, compared with the other standard polyphenols
Description: Therefore, to check the potential preventive effects of P. spinosa fruit extracts against oxidative and nitrative injury of biomolecules, an experimental model of human blood plasma exposed to oxidative stress induced by ONOO^− (100–150 μM; achievable locally in vivo, e.g., in inflamed blood vessels) was applied. The process was monitored by measuring the oxidative stress biomarkers, including the products of protein nitration (3-nitrotyrosine, 3-NT), lipid peroxidation (thiobarbituric acid reactive substances, TBARS), as well as the total antioxidant capacity of plasma (NEAC). The extracts and fractions from fresh sloes were selected for the study due to their high ability to inhibit glycolytic enzymes, potent anti-glycation activity, and significant ROS/RNS-scavenging properties. […] The influence on the levels of oxidative stress biomarkers in plasma was evaluated using the appropriate immunoenzymatic and spectrophotometric methods. […] The results were calculated using the standard curve of nitro-fibrinogen (3-NT-Fg) and expressed as 3-NT-Fg equivalents (nmol/mg of plasma proteins). The TBARS levels of plasma lipids were determined spectrophotometrically and calculated in nmol/mL of plasma. The impact on the NEAC value was measured using the FRAP assay, with the results calculated from the standard curve of ferrous sulphate and expressed in mM of Fe^2+ equivalents.

human neutrophils = system: human neutrophils; set-up: method as in PMID 35630778; conditions: 50 μM; cited from earlier work

Structure (SMILES): O=C1O[C@H]([C@@H](O)CO)C(O)=C1O [Ascorbic acid, ascorbic acid]
- Scavenging activity (SC50) HO^• (HO^• scavenging): 0.14 ± 0.005 ^B,C mg/mL
- Scavenging activity (SC50) NO^• (NO^• scavenging): 0.59 ± 0.04 ^A µg/mL
- Scavenging activity (SC50) HOCl (HOCl scavenging): 6.32 ± 0.07 ^A µg/mL
- Scavenging activity (SC50) O2^•− (O2^•− scavenging): 5.28 ± 0.25 ^A µg/mL
- Scavenging activity (SC50) H2O2 (H2O2 scavenging): 0.014 ± 0.001 ^A,B mg/mL

Structure (SMILES): O=C(/C=C/c1ccc(O)c(O)c1)O[C@@H]1C[C@](O)(C(=O)O)C[C@@H](O)[C@H]1O [Chlorogenic acid, 5-O-caffeoylquinic acid]
- AGEs Formation IC50 [1]: 7.07 ± 0.74 ^A µg/mL
- IC50 (α-amylase): 229 µM

Structure (SMILES): OC[C@H]1O[C@@H](Oc2cc3c(O)cc(O)cc3[o+]c2-c2ccc(O)c(O)c2)[C@H](O)[C@@H](O)[C@@H]1O [Cyanidin 3-O-glucoside, cyanidin 3-O-β-D-glucopyranoside]
- AGEs Formation IC50 [1]: 10.90 ± 0.85 ^A µg/mL
- α-Amylase IC50 (α-amylase): 31.28 ± 1.66 ^B µg/mL
- Scavenging activity (SC50) HO^• (HO^• scavenging): 0.17 ± 0.002 ^C mg/mL
- Scavenging activity (SC50) NO^• (NO^• scavenging): 1.40 ± 0.09 ^B µg/mL
- α-Glucosidase IC50 (α-glucosidase): 635.13 ± 34.43 ^H µg/mL
- Scavenging activity (SC50) HOCl (HOCl scavenging): 5.62 ± 0.11 ^A µg/mL
- Scavenging activity (SC50) O2^•− (O2^•− scavenging): 10.11 ± 0.33 ^A µg/mL
- Scavenging activity (SC50) H2O2 (H2O2 scavenging): 0.012 ± 0.001 ^A,B mg/mL
- activity of model polyphenol in the TBARS test [2]: especially active

Structure (SMILES): O=c1c(O[C@@H]2O[C@H](CO)[C@@H](O)[C@H](O)[C@H]2O)c(-c2ccc(O)c(O)c2)oc2cc(O)cc(O)c12 [Quercetin 3-O-glucoside (isoquercitrin), quercetin 3-O-β-D-glucopyranoside]
- AGEs Formation IC50 [1]: 3.09 ± 0.17 ^A µg/mL
- α-Glucosidase IC50 (α-glucosidase): 209.64 ± 5.64 ^G µg/mL

Structure (SMILES): O=c1c(O)c(-c2ccc(O)c(O)c2)oc2cc(O)cc(O)c12 [Quercetin, quercetin]
- Scavenging activity (SC50) HO^• (HO^• scavenging): 0.05 ± 0.002 ^A mg/mL
- Scavenging activity (SC50) NO^• (NO^• scavenging): 0.48 ± 0.03 ^A µg/mL
- Scavenging activity (SC50) HOCl (HOCl scavenging): 2.08 ± 0.14 ^A µg/mL
- Scavenging activity (SC50) O2^•− (O2^•− scavenging): 7.89 ± 0.24 ^A µg/mL
- Scavenging activity (SC50) H2O2 (H2O2 scavenging): 0.008 ± 0.001 ^A mg/mL
- downregulation (reduction) of the ROS level in human neutrophils (human neutrophils): 96%

Structure (SMILES): Cc1c(C)c2c(c(C)c1O)CCC(C)(C(=O)O)O2 (stereo not shown) [Trolox]
- Scavenging activity (SC50) HO^• (HO^• scavenging): 0.13 ± 0.003 ^B,C mg/mL
- Scavenging activity (SC50) NO^• (NO^• scavenging): 0.59 ± 0.02 ^A µg/mL
- Scavenging activity (SC50) HOCl (HOCl scavenging): 21.49 ± 1.21 ^C µg/mL
- Scavenging activity (SC50) O2^•− (O2^•− scavenging): 135.33 ± 5.59 ^F µg/mL
- Scavenging activity (SC50) H2O2 (H2O2 scavenging): 0.020 ± 0.001 ^B mg/mL

Structure (SMILES): O=Cc1ccc(CO)o1 [5-Hydroxymethylfurfural (HMF), 5-hydroxymethylfurfural]
- Scavenging activity (SC50) HO^• (HO^• scavenging): *** (inactive up to 1500 µg/mL)
- Scavenging activity (SC50) NO^• (NO^• scavenging): ** (inactive up to a concentration of 500 µg/mL)
- α-Glucosidase IC50 (α-glucosidase): ** (inactive up to 1000 µg/mL)
- Scavenging activity (SC50) HOCl (HOCl scavenging): ** (inactive up to a concentration of 500 µg/mL)
- Scavenging activity (SC50) O2^•− (O2^•− scavenging): ** (inactive up to a concentration of 500 µg/mL)
- Scavenging activity (SC50) H2O2 (H2O2 scavenging): *** (inactive up to 1500 µg/mL)
- downregulation (reduction) of the ROS level in human neutrophils (human neutrophils): 15%

Structure (SMILES): N=C(N)NN [Aminoguanidine, aminoguanidine]
- AGEs Formation IC50 [1]: 78.89 ± 4.95 ^C µg/mL
